In data set [1] the test system is anaerobic mixed culture (domestic sewage). The experiment in a line: Anaerobic digestion of domestic sewage, overall effect of formate salt concentration. To be noted: for effect on anaerobic digestion over the tested concentration range: 10 mg/L to 100,000 mg/L based on the organic matter available for digestion. The procedure: The various formate salts include, but are not limited to sodium formate (NaHCOO), potassium formate (KHCOO), ammonium formate (NH4COO), calcium formate (Ca(HCOO)2), and others either singly or in combination. These formate salts have been tested for concentrations ranging from 10 mg/L (˜10 ppm) to as high as […] (100,000 mg/L) based on the organic matter available for digestion.
Two tests were run in which sodium formate in concentrations ranging from a few parts per million (ppm) up to ten percent (10%) on a mass basis were added to samples taken from a publicly owned anaerobic digester. The samples were first cultured in laboratory sized batch reactors. The twelve batch reactors were then sampled, and studied for periods of up to fifty-five days. The process variables that were monitored included COD (Chemical Oxygen Demand), TS (Total Solids), TVS (Total Volatile Solids) and the pH of the culture. Time and the initial sodium formate concentration level were the independent variables. Finally measurements were also made of the bacterial counts at the beginning and at the end of the fifty five day period.
Municipal sludge from the city of Lubbock, Wastewater Treatment Plant was digested in 12 batch digesters. Using twelve batch reactors allowed the collection of control reactors data (i.e., no formate in the reactors) in triplicate, titration studies of increasing formate concentration, and duplicates/triplicates of varying formate concentration. Experiments were conducted in the laboratories of Texas Tech University.

In data set [2] the test system is microorganisms in domestic sewage. To be noted: sodium chloride spike; cited from earlier work.

Take `O=C[O-].[K+]` [potassium formate]: the “effect on anaerobic digestion over the tested concentration range” value in data set [1] is reported as “beneficial at all concentration levels”. Besides, the “concentration range of greatest effects” value in data set [1] (10 mg/L to 100,000 mg/L tested) was “greatest effects being observed over the 100 ppm to the 2,000-mg/L range”.

With `[Cl-].[Na+]` [sodium chloride], the “toxicity of sodium levels” value in data set [2] is listed as “toxic to all microorganisms in domestic sewage at levels above three to four percent”.

Consider `N.O=CO` [ammonium formate], for which the “effect on anaerobic digestion over the tested concentration range” value in data set [1] was “initiate the inhibition of digestion at concentrations above a few thousand mg/L”.

The values are drawn from patent US20020162794A1, “Anaerobic digestion” (priority 2001, published 2002).
